Experiments:
syntaxin 1b (Stx 1b) = experiment: Untargeted proteomic analysis of cortexes, Stx 1b; parameters: species or system rat; conditions: CBD 1000 nM, CBG 1 nM
Procedure: Sprague–Dawley rats (200–250 g) were sacrificed by CO2 inhalation (Italian Health Ministry authorization N. F4738.N.XTQ, delivered on 11th November 2018) and isolated prefrontal cortex specimens were immediately explanted and incubated in thermostatic shaking bath at 37 °C for 1 h (incubation period), in Krebs–Ringer buffer at the following K^+ concentrations:
Cortexes were stimulated with CBD (1000 nM) and CBD (1 nM). Afterwards, specimens were homogenized in perchloric acid solution (0.05 M) for the extraction and quantification of nitrites, via the aforementioned colorimetric Griess assay, and serotonin (5-HT), 5-hydroxyindoleacetic (5HIIA),3-hydroxykinurenine (3-HK) and kinurenic acid (KA) (ng/mg wet tissue) via high performance liquid chromatography analysis. Additionally, an untargeted proteomic analysis was carried out on the cortex homogenate. The analytical protocols for 5-HT, 5HIIA, 3-HK, KA and protein level determinations are described below. […]
After protein quantification, a volume corresponding to 50 μg of proteins was loaded onto a Nanosep 10-kDa-cutoff filter (Pall Corporation, Michigan, USA) and digested according to the protocol we routinely use in our laboratory, adapted from Distler et al. Briefly, the sample was washed twice with 200 μL urea buffer (8M urea, 100 mM Tris pH 8.5 in milliQ water) to remove the detergents present in the lysis buffer. […]

[1] = tested on: CTX-TNA2 astrocyte cell line; experiment: ROS production by flow cytometry; type: cell-based, rat; conditions: challenged with 300 µM H2O2; 1000 nM CBD, 1 nM CBG; 24 and 48 h
Procedure: The CTX-TNA2 rat astrocytes were purchased from the European Collection of Cell Cultures (ECACC), Sigma-Aldrich, Milan, Italy, and cultured as already indicated. Cells were grown in Dulbecco’s Modified Eagle Medium supplemented with 10% of FBS and penicillin–streptomycin (100 µgmL^−1) (all from EuroClone SpA Life-Sciences-Division, Milan, Italy) and maintained in a humified atmosphere of 5% CO2 at 37 °C. Cells were subcultivated at a ratio of 1.2 to 1.8 and the medium was changed every 3 days. CTX-TNA2 astrocytes were plated in 25 or 75 cm^2 flasks, according to experimental needing and cells between the eight and the 15 passage were used.
When indicated, the cells were treated with H2O2 300 µM for three hours and different concentrations of CBD (1–1000 nM) and CBG (1–1000 nM). […]
Reactive oxygen species (ROS) production was determined as already reported by monitoring by flow cytometry the increase in green fluorescence after labeling the cells (5 × 10^5) with 5 μmolL^−1 of 5-(and-6)-chloromethyl-2′,7′-dichlorodihydrofluorescein diacetate, acetyl ester (CM-H2DCFDA, Molecular Probes, Invitrogen, Life-Sciences-Division, Milano, Italy) for 40 min followed by 20 min of recovery at 37 °C. The increase in green fluorescence, indicating the production of ROS, was detected by a Cytoflex flow cytometer with an FL1 detector in a log mode (Beckmann Coulter, FL, USA). […]

[2] = tested on: isolated rat prefrontal cortex, nitrite; experiment: H2O2-induced nitrite level in isolated cortexes (Griess assay); conditions: hydrogen peroxide 300 µM; for inhibition of H2O2-induced increase in nitrite level: 1–1000 nM
Procedure: Sprague–Dawley rats (200–250 g) were sacrificed by CO2 inhalation and isolated prefrontal cortex specimens were immediately explanted and exposed to 300 µM H2O2 and different concentrations of CBD (1–1000 nM) and CBG (1–1000 nM) for one hour, at 37 °C. The nitrite concentration in the resuspension buffer was determined by colorimetric Griess assay. Specifically, cortex specimens were homogenized for 2 min with Potter–Elvehjem homogenizer in 2 mL DMEM buffer. The homogenate was centrifuged at 4500 g for 10 min and nitrite production was determined in the supernatant fraction by mixing 50 µL of the assay buffer with 50 µL of Griess reagent (1.5% sulfanilamide in 1M HCl plus 0.15% N-(1-naphthyl) ethylenediamine dihydrochloride in distilled water, v/v). After 10 min incubation at room temperature, the absorbance at 540 nm was determined and nitrite concentrations were calculated from a sodium nitrite standard curve. All measurements were performed in triplicate.

5-HT receptor (5-HT1A) = conditions: cited from earlier work

For `C=C(C)[C@@H]1CCC(C)=C[C@H]1c1c(O)cc(CCCCC)cc1O` [CBD, Cannabidiol], the “effect on K+ 60 mM-induced reduction in Stx 1b level” value (syntaxin 1b (Stx 1b)) was “blocking the downregulation”, the ROS production [1] was “reduction in ROS production” and the “inhibition of H2O2-induced increase in nitrite level” value [2] was “inhibit such an increase at all the tested concentrations”. The “effect on 5-HT1A activity” value (5-HT receptor (5-HT1A)) was “activated”.

With `CCCCCc1cc(O)c(C/C=C(\C)CCC=C(C)C)c(O)c1` [CBG, cannabigerol] the “effect on K+ 60 mM-induced reduction in Stx 1b level” value (syntaxin 1b (Stx 1b)) was “completely ineffective”, the ROS production [1] was “reduction in ROS production” and the “inhibition of H2O2-induced increase in nitrite level” value [2] was “significant at the two lowest tested concentrations only”. The “concentration of maximal inhibition of nitrite production” value ([2]; tested 1–1000 nM) was 1 nM and the “effect on 5-HT1A activity” value (5-HT receptor (5-HT1A)) was “moderately antagonized”.
